Here are results for 15 molecules from PubChem BioAssay AID298 (DTP/NCI, 2004).

The test system of this experiment is MX-1 breast xenograft, intrarenal, nude mice, tumor weight. Description: NCI In Vivo Anticancer Drug Screen. Data for tumor model Human Mammary Carcinoma MX-1 Xenograft (intrarenal inoculation) in NU/NU BALB/C (nude) mice. Conditions: endpoint: mean tumor weight change, higher = larger tumour. The gist of the method:
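Efficacy in vivo: tumor measurement or survival of treated animals divided by that of vehicle-dosed controls.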
For orientation: Xenograft models place foreign cells or tissue in a host animal.

Setting [1] is: dose: 150.0 mg/kg/injection, schedule: Q04DX003 (sc), vehicle: saline.
The mark [2] stands for this setting: dose: 300.0 mg/kg/injection, schedule: Q04DX003 (sc), vehicle: saline.

Several values for one entry are separate records, joined by “and”; a condition that tells them apart may be missing. Identical values can stand only once. Records with an inconclusive call do not appear.

With `Nc1ncn(C2OC(CO)C(O)C2O)c(=O)n1` (configuration not stated), the T/C (dose: 0.19 mg/kg/injection, schedule: Q01DX010 (ip), vehicle: saline) was 307 % of control; the T/C (dose: 0.19 mg/kg/injection, schedule: Q01DX010 (sc), vehicle: saline) was 83 % of control; the T/C (dose: 0.38 mg/kg/injection, schedule: Q01DX010 (ip), vehicle: saline) is 261 % of control; the T/C (dose: 0.63 mg/kg/injection, schedule: Q04DX003 (ip), vehicle: saline) is 73 % of control; the T/C (dose: 0.63 mg/kg/injection, schedule: Q04DX003 (sc), vehicle: saline) is 22 % of control; the T/C (dose: 0.75 mg/kg/injection, schedule: Q01DX010 (ip), vehicle: saline) is 86 % of control. Moreover, the T/C is 69 % of control (dose: 0.75 mg/kg/injection, schedule: Q01DX010 (sc), vehicle: saline); 91 % of control (dose: 1.25 mg/kg/injection, schedule: Q04DX003 (ip), vehicle: saline); 40 % of control (dose: 1.25 mg/kg/injection, schedule: Q04DX003 (sc), vehicle: saline); 249 % of control (dose: 1.5 mg/kg/injection, schedule: Q01DX010 (ip), vehicle: saline); 94 % of control (dose: 2.5 mg/kg/injection, schedule: Q04DX003 (ip), vehicle: saline); 36 % of control (dose: 2.5 mg/kg/injection, schedule: Q04DX003 (sc), vehicle: saline). For the same molecule, the T/C runs as follows: (dose: 5.0 mg/kg/injection, schedule: Q04DX003 (ip), vehicle: saline) 31 % of control; (dose: 10.0 mg/kg/injection, schedule: Q04DX003 (sc), vehicle: saline) 23 % of control; (dose: 100.0 mg/kg/injection, schedule: Q04DX003 (sc), vehicle: saline) 15 % of control; under setting [1], 21 % of control; (dose: 200.0 mg/kg/injection, schedule: Q04DX003 (sc), vehicle: saline) 15 % of control; under setting [2], 8 % of control. The T/C by setting is: (dose: 400.0 mg/kg/injection, schedule: Q04DX003 (sc), vehicle: saline) 4 % of control; (dose: 600.0 mg/kg/injection, schedule: Q04DX003 (sc), vehicle: saline) -45 % of control; (dose: 800.0 mg/kg/injection, schedule: Q04DX003 (sc), vehicle: saline) -50 % of control; (dose: 1200.0 mg/kg/injection, schedule: Q04DX003 (sc), vehicle: saline) -43 % of control.
`O=C1C2=C(Nc3cc([N+](=O)[O-])ccc3N2)OC1c1ccccn1` (configuration not stated): the T/C is 87 % of control (dose: 50.0 mg/kg/injection, schedule: Q04DX003 (ip), vehicle: Klucel (hydroxypropylcellulose) (HPC)); 66 % of control (dose: 100.0 mg/kg/injection, schedule: Q04DX003 (ip), vehicle: Klucel (hydroxypropylcellulose) (HPC)); 118 % of control (dose: 200.0 mg/kg/injection, schedule: Q04DX003 (ip), vehicle: Klucel (hydroxypropylcellulose) (HPC)); 63 % of control (dose: 400.0 mg/kg/injection, schedule: Q04DX003 (ip), vehicle: Klucel (hydroxypropylcellulose) (HPC)).
In the case of `NC(=O)C1=CC2C3C=CC2(O)C(=O)OC3O1` (configuration not stated), the T/C (dose: 37.5 mg/kg/injection, schedule: Q04DX003 (ip), vehicle: Klucel (hydroxypropylcellulose) (HPC)) was 54 % of control and the T/C (dose: 75.0 mg/kg/injection, schedule: Q04DX003 (ip), vehicle: Klucel (hydroxypropylcellulose) (HPC)) was 42 % of control.
On to `CN=C(NC)c1ccc(NC(=O)/C=C\c2ccc(/C=C/C(=O)Nc3ccc(C(=NC)NC)cc3)cc2)cc1`, for which the T/C (dose: 6.25 mg/kg/injection, schedule: Q04DX003 (ip), vehicle: Klucel (hydroxypropylcellulose) (HPC)) is 89 % of control.
With `CN(Cc1cnc2nc(N)nc(N)c2n1)c1ccc(C(=O)NC(CCC(=O)OCc2cc3c(cc2Cl)OCO3)C(=O)OCc2cc3c(cc2Cl)OCO3)cc1` (configuration not stated), the T/C (dose: 7.5 mg/kg/injection, schedule: Q04DX003 (ip), vehicle: saline with Tween-80) was 75 % of control.
Turning to `O=C1N[C@@H]([C@H]2CC[C@H](Cl)CN2)C(=O)N[C@H]1[C@H]1CC[C@H](Cl)CN1`, the T/C is 62 % of control (dose: 0.31 mg/kg/injection, schedule: Q01DX010 (sc), vehicle: water); 14 % of control (dose: 0.63 mg/kg/injection, schedule: Q01DX010 (sc), vehicle: water); 1 % of control (dose: 1.25 mg/kg/injection, schedule: Q01DX010 (sc), vehicle: water); -54 % of control (dose: 2.5 mg/kg/injection, schedule: Q01DX010 (sc), vehicle: water); -87 % of control (dose: 5.0 mg/kg/injection, schedule: Q01DX010 (sc), vehicle: water).
Consider `Cc1cc(O)c2c(c1O)C(=O)C13C(=C2O)C(=O)C2C(O)C1C1C(O)C3C(=O)C3=C(O)c4c(O)cc(C)c(O)c4C(=O)C321` (configuration not stated), for which the T/C was 107 % of control (dose: 12.5 mg/kg/injection, schedule: Q04DX003 (ip), vehicle: saline with Tween-80) and 76 % of control (dose: 25.0 mg/kg/injection, schedule: Q04DX003 (ip), vehicle: saline with Tween-80).
As for `Oc1cc(O)cc(/C=C/c2ccc(O)c(O)c2)c1`, the T/C reads like this: (dose: 25.0 mg/kg/injection, schedule: Q04DX003 (ip), vehicle: DMSO) 90 % of control; (dose: 37.5 mg/kg/injection, schedule: Q04DX003 (ip), vehicle: DMSO) 123 % of control; (dose: 50.0 mg/kg/injection, schedule: Q04DX003 (ip), vehicle: DMSO) 69 % of control; (dose: 75.0 mg/kg/injection, schedule: Q04DX003 (ip), vehicle: DMSO) 71 % of control; (dose: 100.0 mg/kg/injection, schedule: Q04DX003 (ip), vehicle: DMSO) 48 % of control; (dose: 150.0 mg/kg/injection, schedule: Q04DX003 (ip), vehicle: DMSO) 67 % of control.
On to `Cc1ccoc1`, for which the T/C runs as follows: (dose: 50.0 mg/kg/injection, schedule: Q01DX010 (ip), vehicle: saline with Tween-80) 102 % of control; (dose: 100.0 mg/kg/injection, schedule: Q01DX010 (ip), vehicle: saline with Tween-80) 97 % of control; (dose: 200.0 mg/kg/injection, schedule: Q01DX010 (ip), vehicle: saline with Tween-80) 104 % of control.
On to `CCCCCCCCCCCCCCCCCCOCC(CO)OC` (configuration not stated), for which the T/C reads like this: (dose: 150.0 mg/kg/injection, schedule: Q04DX003 (ip), vehicle: saline with Tween-80) 117 % of control; (dose: 300.0 mg/kg/injection, schedule: Q04DX003 (ip), vehicle: saline with Tween-80) 93 % of control; (dose: 600.0 mg/kg/injection, schedule: Q04DX003 (ip), vehicle: saline with Tween-80) 81 % of control; (dose: 1200.0 mg/kg/injection, schedule: Q04DX003 (ip), vehicle: saline with Tween-80) 46 % of control.
As for `NCCCNCCCCNC(=O)C(O)NC(=O)CC(O)CCCCN=C(N)N` (configuration not stated), the T/C (dose: 12.5 mg/kg/injection, schedule: Q04DX003 (ip), vehicle: saline) was 100 % of control; the T/C (dose: 25.0 mg/kg/injection, schedule: Q04DX003 (ip), vehicle: saline) was 93 % of control; the T/C (dose: 50.0 mg/kg/injection, schedule: Q04DX003 (ip), vehicle: saline) is 29 % of control and 44 % of control; the T/C (dose: 100.0 mg/kg/injection, schedule: Q04DX003 (ip), vehicle: saline) was 53 % of control and 56 % of control.
Regarding `CN1CCN(c2ccc([N+](=O)[O-])c3no[n+]([O-])c23)CC1`, the T/C runs as follows: (dose: 37.5 mg/kg/injection, schedule: Q04DX003 (sc), vehicle: saline with Tween-80) 117 % of control; (dose: 75.0 mg/kg/injection, schedule: Q04DX003 (sc), vehicle: saline with Tween-80) 83 % of control; (dose: 150.0 mg/kg/injection, schedule: Q04DX003 (sc), vehicle: saline with Tween-80) 72 % of control.
With `Oc1ccc(CCl)c2cccnc12`, the T/C is 120 % of control (dose: 75.0 mg/kg/injection, schedule: Q04DX003 (sc), vehicle: saline); 99 % of control under setting [1]; 87 % of control under setting [2].
In the case of `CC1(C)N=C(N)N=C(N)N1c1ccc(F)c(C(F)(F)F)c1`, the T/C (dose: 6.25 mg/kg/injection, schedule: Q01DX010 (sc), vehicle: saline) was 97 % of control; the T/C (dose: 12.5 mg/kg/injection, schedule: Q01DX010 (sc), vehicle: saline) was 85 % of control; the T/C (dose: 25.0 mg/kg/injection, schedule: Q01DX010 (sc), vehicle: saline) was 64 % of control.
Turning to `CCCCCc1cc(/C=C2/N=C(c3ccc[nH]3)C=C2OC)[nH]c1C`, the T/C runs as follows: (dose: 16.0 mg/kg/injection, schedule: Q04DX003 (sc), vehicle: saline with Tween-80) 93 % of control; (dose: 32.0 mg/kg/injection, schedule: Q04DX003 (sc), vehicle: saline with Tween-80) 93 % of control; (dose: 64.0 mg/kg/injection, schedule: Q04DX003 (sc), vehicle: saline with Tween-80) 75 % of control; (dose: 128.0 mg/kg/injection, schedule: Q04DX003 (sc), vehicle: saline with Tween-80) 46 % of control.
